For data set [1] the following is noted: human, microsomes.
Description: (§2) Microsomal stability in human liver microsomes assessed as intrinsic clearance
Data set [2] has as its target GTPase KRas (Homo sapiens, UniProt P01116, G12C).
Data set [3] is described as follows: (§1) Efflux ratio of apparent permeability in dog MDCK cells transfected with MDR1 and BCRP at 0.1 uM. It counts as ADME, cell-based, Canis lupus familiaris. As to conditions: mdck, 0.1 µM; call rule not given here.
Data set [4] can be described thus: […] stability in rat hepatocyte assessed as intrinsic clearance measured per million of cells. It counts as ADME, cell-based. Conditions: hepatocytes.
Data set [5] is described as follows: Lipophilicity, logD of compound at 7.4. Conditions: octanol/water.
The nature of data set [6]: Hepatic blood flow in Beagle dog at 1.1 microM/Kg, iv. It counts as ADME, Canis lupus familiaris.
Data set [7] is described as follows: Hepatic extraction ratio in CD-1 mouse at 2.3 microM/Kg, iv. It is filed as ADME. As to conditions: at 2.3 µmol/kg, read-out: ERH.
The nature of data set [8]: Half life in Wistar Han rat at 1.1 to 2.3 microM/Kg, iv. It counts as ADME. Conditions: in vivo, dose 1.1-2.3 µM/Kg.
The test system of data set [9] is A549. Briefly: Antiproliferative activity against human A549 cells harboring KRAS G12S mutant cultured as 3D spheroids assessed as reduction in cell proliferation incubated for 3 days by CellTiter-Glo 3D reagent based assay. It counts as functional. As to conditions: A549, 72 h.
Data set [10] deals with NCI-H358. Briefly: Antiproliferative activity against human NCI-H358 cells harboring KRAS G12C mutant cultured as 3D spheroids assessed as reduction in cell proliferation incubated for 3 days by CellTiter-Glo 3D reagent based assay. As to conditions: NCI-H358, 72 h. It counts as functional.
Data set [11] in a line: Inhibition of KRAS/MAPK pathway in human PC-9 cells harboring wild-type KRAS assessed as decrease in p90RSK phosphorylation incubated for 2 hrs by immunofluorescence assay. It is filed as cell-based. Conditions: PC-9, 2 h.
Data set [12] is described as follows: Observed clearance in Beagle dog at 1.1 microM/Kg, iv. It is filed as ADME, Canis lupus familiaris. Conditions: in vivo.
Data set [13] can be described thus: Toxicity in athymic nude mouse xenografted with human NCI-H358 cells harboring KRAS G12C mutant assessed as body weight change at 10 to 100 mg/kg, po for 21 days. It counts as organism-based. Conditions: in vivo, 504 h, dose 10-100 mg/kg, time 21 day. A general note: Xenograft models place foreign cells or tissue in a host animal.
Data set [14] can be described thus: Unbound brain-to-plasma concentration ratio in Wistar Han rat at 2.3 microM/Kg, iv and measured after 1 hrs in presence of pretreatment with elacridar for 0.5 hrs. It counts as ADME, organism-based. As to conditions: with elacridar (pretreatment for 0.5 hrs, dose not stated), read-out: K(p,uu,brain).
In data set [15] the test system is NCI-H358. Briefly: Antiproliferative activity against human NCI-H358 cells harboring KRAS G12C mutant cultured as […] assessed as reduction in cell proliferation incubated for 3 days by CellTiter-Glo reagent based assay. It is filed as functional. Conditions: NCI-H358, 72 h.
Data set [16] is described as follows: Observed clearance in Wistar Han rat at 1.1 to 2.3 microM/Kg, iv. Conditions: in vivo, dose 1.1-2.3 µM/Kg. It is filed as ADME.
Data set [17] in a line: in vitro. Conditions: human, liver microsomes, CLH. (Microsomes from liver hold many membrane-bound enzymes, among them those of drug oxidation.)
Description: as §2
Data set [18] can be described thus: Hepatic blood flow in CD-1 mouse at 2.3 microM/Kg, iv. It is filed as ADME.
Data set [19] can be described thus: Hepatic blood flow in Wistar Han rat at 1.1 to 2.3 microM/Kg, iv. It counts as ADME. Conditions: dose 1.1-2.3 µM/Kg.
Data set [20] can be described thus: Inhibition of KRAS/MAPK pathway in human NCI-H358 cells harboring KRAS G12C mutant assessed as decrease in p90RSK phosphorylation incubated for 2 hrs by immunofluorescence assay. It counts as cell-based. As to conditions: NCI-H358, 2 h.
The nature of data set [21]: Inhibition of KRAS/MAPK pathway in human Calu-6 cells harboring KRAS Q61K mutant assessed as decrease in p90RSK phosphorylation incubated for 2 hrs by immunofluorescence assay. It counts as cell-based. Conditions: Calu-6, 2 h.
Data set [22] is described as follows: Unbound brain-to-plasma concentration ratio in iv dosed Cynomolgus monkey administered as […] compound by HPLC analysis. It counts as ADME, organism-based, Macaca fascicularis. Conditions: read-out: K(p,uu,brain).
Data set [23] in a line: Oral bioavailability in CD-1 mouse at 6.8 microM/Kg. It counts as ADME, organism-based. As to conditions: in vivo, at 6.8 µmol/kg.
Data set [24] is described as follows: Oral bioavailability in Wistar Han rat at 2.3 to 6.8 microM/Kg. Conditions: in vivo, dose 2.3-6.8 µM/Kg. It counts as ADME, organism-based.
A short description of data set [25]: Volume of distribution at steady state in Wistar Han rat at 1.1 to 2.3 microM/Kg, iv. It counts as ADME. Conditions: in vivo, dose 1.1-2.3 µM/Kg, read-out: Vdss.
Data set [26] is described as follows: Oral bioavailability in Beagle dog at 2.3 microM/Kg. It is filed as ADME, organism-based, Canis lupus familiaris. Conditions: in vivo, at 2.3 µmol/kg.
In data set [27] the test system is MDR1 and BCRP. Described as §1. It is filed as ADME, cell-based, Canis lupus familiaris.
Data set [28] in a line: Unbound brain-to-plasma concentration ratio in Beagle dog at 170 to 680 microM/Kg, po QD for 15 days and measured 2 hrs last dose. It counts as ADME, organism-based, Canis lupus familiaris. Conditions: dose 170-680 µM/Kg, time 15 day, read-out: K(p,uu,brain).
Data set [29] is described as follows: Unbound brain-to-plasma concentration ratio in Wistar Han rat at 2.3 microM/Kg, iv and measured after 4 hrs. It counts as ADME, organism-based. As to conditions: read-out: K(p,uu,brain).
A short description of data set [30]: Half life in Beagle dog at 1.1 microM/Kg, iv. Conditions: in vivo. It counts as ADME, Canis lupus familiaris.
The species entered for data set [31] is Mus musculus. As to conditions: dose 10-30 mg/kg, route po, time 3.0 hrs.
For data set [32], the species on record is Mus musculus. Conditions: dose 10-30 mg/kg, route po, time 6.0 hrs.
Data set [33] can be described thus: Volume of distribution at steady state in CD-1 mouse at 2.3 microM/Kg, iv. It counts as ADME. Conditions: in vivo.
Data set [34] is described as follows: Drug distribution in iv dosed Cynomolgus monkey brain administered as […] compound and assessed as radioactivity and measured 5 to 123 min post dose by PET imaging analysis. It is filed as ADME, organism-based, Macaca fascicularis. As to conditions: in vivo, time 5-123 min.
Data set [35] can be described thus: Hepatic extraction ratio in Wistar Han rat at 1.1 to 2.3 microM/Kg, iv. Conditions: dose 1.1-2.3 µM/Kg, read-out: ERH. It is filed as ADME.
The nature of data set [36]: Free drug concentration in athymic nude mouse plasma xenografted with human NCI-H358 cells harboring KRAS G12C mutant at 30 to 100 mg/kg, po and measured upto 24 hrs. As to conditions: in vivo, dose 30-100 mg/kg. It counts as ADME, organism-based.
A short description of data set [37]: Volume of distribution at steady state in Beagle dog at 1.1 microM/Kg, iv. It is filed as ADME, Canis lupus familiaris. Conditions: in vivo, read-out: Vdss.
Data set [38] can be described thus: Hepatic extraction ratio in Beagle dog at 1.1 microM/Kg, iv. It is filed as ADME, Canis lupus familiaris. As to conditions: at 1.1 µmol/kg, read-out: ERH.

The IC50 is the concentration needed to halve the response being measured. In general, logD refers to lipophilicity at a set pH, counting ionised and neutral species. A word on the half-life: it is the time in which the quantity being followed falls by half. The term clearance denotes the volume of plasma or blood freed of the substance per unit of time. For orientation: microsomal CLint means a measure of how fast metabolising enzymes remove a compound, apart from limits set by blood flow. For orientation: bioavailability means the share of a dose that reaches the circulation, judged against a reference dose that is usually intravenous. A word on the efflux ratio: it is a quotient of directional permeabilities that is used to spot active efflux. Broadly, the Vdss is a proportionality between amount in the body and measured concentration, not a real space.

Where only a bound is given, the exact number is not on record here.

Sequence of GTPase KRas (P01116 whole entry G12C): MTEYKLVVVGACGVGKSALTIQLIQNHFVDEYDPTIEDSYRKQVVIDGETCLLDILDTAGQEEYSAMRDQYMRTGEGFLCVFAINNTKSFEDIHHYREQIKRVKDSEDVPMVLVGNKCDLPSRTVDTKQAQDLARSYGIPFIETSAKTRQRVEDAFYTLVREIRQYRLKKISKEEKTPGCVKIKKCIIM

As for `C=CC(=O)N1CCN2Cc3ccc(-c4c(C)ccc5[nH]ncc45)c(Cl)c3OCCC2C1` (stereo in doubt; 20), the CLH in data set [1] is over 300 µL/min/mg; in [4], 97 µL/min. In addition, the IC50 in [2] amounted to 4010 nM. Also, the Ratio in data set [3] was 2.1. Moreover, the logD in data set [5] (pH 7.4) worked out at 3.3.
`C=CC(=O)N1CCN2Cc3cc(C#CC)c(-c4c(O)cccc4Cl)c(F)c3OC[C@H]2C1`: the QH in data set [6] turned out to be 55 mL/min/kg; in data set [18], 152 mL/min/kg; in [19] it was 72 mL/min/kg. The hepatic extraction ratio in [7] is 0.52; in data set [35] it was 0.75; in data set [38], 0.19. The results for the half-life in data set [8] and in data set [30] were 0.56 h and 1.7 h, respectively. In addition, the IC50 was 23300 nM in [9]; 12 nM in data set [10]; over 30000 nM in data set [11]; 360 nM in [15]; 65 nM in [20]; over 30000 nM in data set [21]. Besides, in data set [2], the half-inhibitory concentration (IC50) is 15 nM. Also, the clearance was found to be 10 mL/min/kg in data set [12] and 54 mL/min/kg in data set [16]. The Activity result in [13] is “Non-Toxic”. The Kp uu at 1 h in data set [14] was 1. For the same compound, the intrinsic clearance (microsomal CLint) in data set [17] came out at 15 µL/min/mg. In [22], the Kp uu amounted to 1.6. Besides, the bioavailability came to 58% in data set [23], 18% in data set [24] and 63% in data set [26]. In addition, the Vd in data set [25] was 1.7 L/kg; in data set [37], 1.2 L/kg. Moreover, the efflux ratio at 0.1 µM in data set [27] amounted to 1.1. In addition, in data set [28], the Kp uu at 360 h stood at 0.7. In addition, in data set [29], the Kp uu at 4 h stood at 0.11. For the same compound, the inhibition entry in data set [31] and in data set [32] was “Dose-Dependent Effect” throughout. The same compound displayed a Vdss in data set [33] of 2.9 L/kg. The CLH in data set [4] was found to be 34 µL/min. In addition, the Drug uptake result in [34] was “Active”. Moreover, in [5] (pH 7.4, logD), the logD is 2.9. Moreover, in data set [36], the “Cp(f)” value was found to be 40 nM.
